Assay results from patent US9695155B2, “Herbicidal substituted pyrimidinyloxy benzene compounds” (E. I. DU PONT DE NEMOURS AND COMPANY, priority 2013, dated 2017).

Tests used:
field poppy = test: Test D preemergence; format: in vivo, Papaver rhoeas; settings: Papaver rhoeas, pre-emergence; for pest or weed control at 31 g/ha: 31 g ai/ha; for pest or weed control at 62 g/ha: 62 g ai/ha; for pest or weed control at 125 g/ha: 125 g ai/ha
Text: (§1) Seeds of plant species selected from bluegrass (annual bluegrass, Poa annua), blackgrass (Alopecurus myosuroides), canarygrass (littleseed canarygrass, Phalaris minor), chickweed (common chickweed, Stellaria media), galium (catchweed bedstraw, Galium aparine), bromegrass, downy (downy bromegrass, Bromus tectorum), field poppy (Papaver rhoeas), field violet (Viola arvensis), green foxtail (Setaria viridis), deadnettle (henbit deadnettle, Lamium amplexicaule), Italian ryegrass (Lolium multiflorum), kochia (Kochia scoparia), lambsquarters (Chenopodium album), oilseed rape (Brassica napus), pigweed (Amaranthus retroflexus), chamomile (scentless chamomile, Matricaria inodora), Russian thistle (Salsola kali), speedwell (bird's-eye speedwell, Veronica persica), spring barley (Hordeum vulgare), spring wheat (Triticum aestivum), wild buckwheat (Polygonum convolvulus), wild mustard (Sinapis arvensis), wild oat (Avena fatua), wild radish (Raphanus raphanistrum), windgrass (Apera spica-venti), winter barley (Hordeum vulgare), and winter wheat (Triticum aestivum) were planted into a silt loam soil and treated preemergence with test chemicals formulated in a non-phytotoxic solvent mixture which included a surfactant.
(§2) At the same time, these species were planted in pots containing Redi-Earth® planting medium (Scotts Company, 14111 Scottslawn Road, Marysville, Ohio 43041) comprising spaghnum peat moss, vermiculite, wetting agent and starter nutrients and treated with postemergence applications of the test chemicals formulated in the same manner. Plants ranged in height from 2 to 18 cm (1- to 4-leaf stage). Treated plants and controls were maintained in a controlled growth environment for 7 to 21 days after which time all species were compared to controls and visually evaluated. Plant response ratings, summarized in Table D, are based on a scale of 0 to 100 where 0 is no effect and 100 is complete control. A dash (-) response means no test result.

field violet = test: Test D preemergence; format: in vivo, Viola arvensis; settings: Viola arvensis, pre-emergence; for pest or weed control at 31 g/ha: 31 g ai/ha; for pest or weed control at 62 g/ha: 62 g ai/ha; for pest or weed control at 125 g/ha: 125 g ai/ha
Text: as §1, §2

windgrass = test: Test D preemergence; format: in vivo, Apera spica-venti; settings: Apera spica-venti, pre-emergence; for pest or weed control at 31 g/ha: 31 g ai/ha; for pest or weed control at 62 g/ha: 62 g ai/ha; for pest or weed control at 125 g/ha: 125 g ai/ha
Text: as §1, §2

canarygrass = test: Test D postemergence; format: in vivo, Phalaris minor; settings: Phalaris minor, post-emergence; for pest or weed control at 31 g/ha: 31 g ai/ha; for pest or weed control at 62 g/ha: 62 g ai/ha; for pest or weed control at 125 g/ha: 125 g ai/ha
Text: as §1, §2

bromegrass, downy = test: Test D postemergence; format: in vivo, Bromus tectorum; settings: Bromus tectorum, post-emergence, Postemergence, scale 0 to 100 (0 no effect, 100 complete control), read-out: Plant response rating, Bromegrass, Downy; for pest or weed control at 31 g/ha: 31 g ai/ha; for pest or weed control at 62 g/ha: 62 g ai/ha; for pest or weed control at 125 g/ha: 125 g ai/ha
Text: as §1, §2

deadnettle = test: Test D postemergence; format: in vivo, Lamium amplexicaule; settings: Lamium amplexicaule, post-emergence; for pest or weed control at 31 g/ha: 31 g ai/ha; for pest or weed control at 62 g/ha: 62 g ai/ha; for pest or weed control at 125 g/ha: 125 g ai/ha
Text: as §1, §2

kochia = test: Test D postemergence; format: in vivo, Kochia scoparia; settings: Bassia scoparia, post-emergence; for pest or weed control at 31 g/ha: 31 g ai/ha; for pest or weed control at 62 g/ha: 62 g ai/ha; for pest or weed control at 125 g/ha: 125 g ai/ha
Text: as §1, §2

chamomile = test: Test D postemergence; format: in vivo, Matricaria inodora; settings: Tripleurospermum inodorum, post-emergence; for pest or weed control at 31 g/ha: 31 g ai/ha; for pest or weed control at 62 g/ha: 62 g ai/ha; for pest or weed control at 125 g/ha: 125 g ai/ha
Text: as §1, §2

wild mustard = test: Test D postemergence; format: in vivo, Sinapis arvensis; settings: Brassica, post-emergence; for pest or weed control at 31 g/ha: 31 g ai/ha; for pest or weed control at 62 g/ha: 62 g ai/ha; for pest or weed control at 125 g/ha: 125 g ai/ha
Text: as §1, §2

[1] = scale 0-100, read-out: Plant response rating, Field Poppy
[2] = scale 0-100, read-out: Plant response rating, Field Violet
[3] = scale 0 (no effect) to 100 (complete control), read-out: Plant response rating, Windgrass
[4] = scale 0-100, read-out: Plant response rating, Windgrass
[5] = scale 0 to 100 (0 no effect, 100 complete control), read-out: Plant response rating, Canarygrass
[6] = scale 0 to 100 (0 no effect, 100 complete control), read-out: Plant response rating, Deadnettle
[7] = scale 0 to 100 (0 no effect, 100 complete control), read-out: Plant response rating, Kochia
[8] = scale 0 to 100 (0 no effect, 100 complete control), read-out: Plant response rating, Chamomile
[9] = scale 0 to 100 (0 no effect, 100 complete control), read-out: Plant response rating, Mustard, Wild

SMILES	pest or weed control at 31 g/ha (field poppy; [1])	pest or weed control at 62 g/ha (field poppy; [1])	pest or weed control at 125 g/ha (field poppy; [1])	pest or weed control at 31 g/ha (field violet; [2])	pest or weed control at 62 g/ha (field violet; [2])	pest or weed control at 125 g/ha (field violet; [2])	pest or weed control at 31 g/ha (windgrass; [3])	pest or weed control at 62 g/ha (windgrass; [4])	pest or weed control at 125 g/ha (windgrass; [4])	pest or weed control at 31 g/ha (canarygrass; [5])	pest or weed control at 62 g/ha (canarygrass; [5])	pest or weed control at 125 g/ha (canarygrass; [5])	pest or weed control at 31 g/ha (bromegrass, downy)	pest or weed control at 62 g/ha (bromegrass, downy)	pest or weed control at 125 g/ha (bromegrass, downy)	pest or weed control at 31 g/ha (deadnettle; [6])	pest or weed control at 62 g/ha (deadnettle; [6])	pest or weed control at 125 g/ha (deadnettle; [6])	pest or weed control at 31 g/ha (kochia; [7])	pest or weed control at 62 g/ha (kochia; [7])	further results
N#Cc1cccc(Oc2ncc(Cl)cn2)c1-n1cc(Br)cn1 [Compound 52, 2-(4-bromo-1H-pyrazol-1-yl)-3-[(5-chloro-2-pyrimidinyl)oxy]benzonitrile]	95%	80%	90%	75%	95%	100%	50%	70%	100%	35%	35%	50%	15%	20%	20%	65%	70%	70%	80%	90%	pest or weed control at 250 g/ha (field poppy; 250 g ai/ha, scale 0-100, read-out: Plant response rating, Field Poppy): 100%; pest or weed control at 250 g/ha (field violet; 250 g ai/ha, scale 0-100, read-out: Plant response rating, Field Violet): 100%; pest or weed control at 250 g/ha (windgrass; 250 g ai/ha, scale 0-100, read-out: Plant response rating, Windgrass): 100%; pest or weed control at 250 g/ha (canarygrass; 250 g ai/ha, scale 0 to 100 (0 no effect, 100 complete control), read-out: Plant response rating, Canarygrass): 60%; pest or weed control at 250 g/ha (bromegrass, downy; 250 g ai/ha): 25%; pest or weed control at 250 g/ha (deadnettle; 250 g ai/ha, scale 0 to 100 (0 no effect, 100 complete control), read-out: Plant response rating, Deadnettle): 100%; pest or weed control at 125 g/ha (kochia; [7]): 90%; pest or weed control at 250 g/ha (kochia; 250 g ai/ha, scale 0 to 100 (0 no effect, 100 complete control), read-out: Plant response rating, Kochia): 90%; pest or weed control at 31 g/ha (chamomile; [8]): 10%; pest or weed control at 62 g/ha (chamomile; [8]): 15%; pest or weed control at 125 g/ha (chamomile; [8]): 20%; pest or weed control at 250 g/ha (chamomile; 250 g ai/ha, scale 0 to 100 (0 no effect, 100 complete control), read-out: Plant response rating, Chamomile): 15%; pest or weed control at 31 g/ha (wild mustard; [9]): 70%; pest or weed control at 62 g/ha (wild mustard; [9]): 80%; pest or weed control at 125 g/ha (wild mustard; [9]): 95%; pest or weed control at 250 g/ha (wild mustard; 250 g ai/ha, scale 0 to 100 (0 no effect, 100 complete control), read-out: Plant response rating, Mustard, Wild): 100%
Fc1cccc(Oc2ncc(Cl)cn2)c1-n1cc(C(F)F)nn1 [Compound 141, 5-chloro-2-[2-[4-(difluoromethyl)-1H-1,2,3-triazol-1-yl]-3-fluorophenoxy]pyrimidine]	100%	100%	100%	100%	100%	100%	70%	85%	100%	25%	35%	55%	20%	30%	45%	100%	100%	100%	85%	100%	pest or weed control at 16 g/ha (field poppy; 16 g ai/ha, scale 0 (no effect) to 100 (complete control), read-out: Plant response rating, Field Poppy): 98%; pest or weed control at 16 g/ha (field violet; 16 g ai/ha, scale 0 (no effect) to 100 (complete control), read-out: Plant response rating, Field Violet): 100%; pest or weed control at 16 g/ha (windgrass; 16 g ai/ha, scale 0 (no effect) to 100 (complete control), read-out: Plant response rating, Windgrass): 35%; pest or weed control at 16 g/ha (canarygrass; 16 g ai/ha, scale 0-100, read-out: Plant response rating, Canarygrass): 10%; pest or weed control at 16 g/ha (bromegrass, downy; 16 g ai/ha): 15%; pest or weed control at 16 g/ha (deadnettle; 16 g ai/ha, scale 0-100, read-out: Plant response rating, Deadnettle): 100%; pest or weed control at 16 g/ha (kochia; 16 g ai/ha, scale 0-100, read-out: Plant response rating, Kochia): 70%; pest or weed control at 125 g/ha (kochia; [7]): 100%; pest or weed control at 16 g/ha (chamomile; 16 g ai/ha, scale 0-100, read-out: Plant response rating, Chamomile): 10%; pest or weed control at 31 g/ha (chamomile; [8]): 20%; pest or weed control at 62 g/ha (chamomile; [8]): 15%; pest or weed control at 125 g/ha (chamomile; [8]): 20%; pest or weed control at 16 g/ha (wild mustard; 16 g ai/ha, scale 0-100, read-out: Plant response rating, Mustard, Wild): 80%; pest or weed control at 31 g/ha (wild mustard; [9]): 100%; pest or weed control at 62 g/ha (wild mustard; [9]): 100%; pest or weed control at 125 g/ha (wild mustard; [9]): 100%
